The values that follow come from PubChem BioAssay AID248 (DTP/NCI, 2004).

This assay deals with L1210 leukemia ip in BDF1 mice, survival T/C. The assay can be described thus: NCI In Vivo Anticancer Drug Screen. Data for tumor model L1210 Leukemia (intraperitoneal) in B6D2F1 (BDF1) mice. To be noted: endpoint: mean survival time, higher = longer survival. Summed up:
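Ratio derived from survival: compound-dosed mice over vehicle-dosed mice, all bearing a transplantable tumor.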

Setting [1] is: dose: 100.0 mg/kg/injection, schedule: Q01DX009 (ip), vehicle: Klucel (hydroxypropylcellulose) (HPC).
Where [2] appears, read: dose: 100.0 mg/kg/injection, schedule: Q04DX003 (ip), vehicle: Klucel (hydroxypropylcellulose) (HPC).
Setting [3] is: dose: 200.0 mg/kg/injection, schedule: Q01DX009 (ip), vehicle: Klucel (hydroxypropylcellulose) (HPC).
The mark [4] stands for this setting: dose: 200.0 mg/kg/injection, schedule: Q04DX003 (ip), vehicle: Klucel (hydroxypropylcellulose) (HPC).
Where [5] appears, read: dose: 400.0 mg/kg/injection, schedule: Q01DX009 (ip), vehicle: Klucel (hydroxypropylcellulose) (HPC).
Setting [6] is: dose: 400.0 mg/kg/injection, schedule: Q04DX003 (ip), vehicle: Klucel (hydroxypropylcellulose) (HPC).
Setting [7] is: dose: 200.0 mg/kg/injection, schedule: Q01DX001 (ip), vehicle: carboxymethylcellulose (CMC).
The mark [8] stands for this setting: dose: 75.0 mg/kg/injection, schedule: Q01DX001 (ip), vehicle: saline.
The mark [9] stands for this setting: dose: 150.0 mg/kg/injection, schedule: Q01DX001 (ip), vehicle: saline.
The mark [10] stands for this setting: dose: 100.0 mg/kg/injection, schedule: Q04DX002 (ip), vehicle: saline with Tween-80.

Several values for one entry are separate records, joined by “and”; a condition that tells them apart may be missing. Equal values may be shown once. Toxic doses and inconclusive results are not listed.

For `CC/C(C#N)=C(\C)C1CC1`, the T/C is 96 % of control (dose: 9.5 mg/kg/injection, schedule: Q01DX001 (ip), vehicle: other); 96 % of control (dose: 19.0 mg/kg/injection, schedule: Q01DX001 (ip), vehicle: other); 104 % of control (dose: 38.0 mg/kg/injection, schedule: Q01DX001 (ip), vehicle: other).

Consider `Nc1nc(N)c2nc(CNc3ccc(CC(=O)NC(CC(=O)O)C(=O)O)cc3)cnc2n1` (configuration not stated), for which the T/C runs as follows: (dose: 25.0 mg/kg/injection, schedule: Q01DX009 (ip), vehicle: sodium bicarbonate) 104 % of control; (dose: 50.0 mg/kg/injection, schedule: Q01DX009 (ip), vehicle: sodium bicarbonate) 106 % of control; (dose: 100.0 mg/kg/injection, schedule: Q01DX009 (ip), vehicle: sodium bicarbonate) 108 % of control.

`O=C(CC(=O)C(F)(F)F)c1cccs1.O=C(CC(=O)C(F)(F)F)c1cccs1.O=C(CC(=O)C(F)(F)F)c1cccs1.[Cr]`: the T/C was 91 % of control (dose: 100.0 mg/kg/injection, schedule: Q01DX001 (ip), vehicle: other); 97 % of control (dose: 100.0 mg/kg/injection, schedule: Q04DX003 (ip), vehicle: other); 94 % of control (dose: 200.0 mg/kg/injection, schedule: Q01DX001 (ip), vehicle: other); 103 % of control (dose: 200.0 mg/kg/injection, schedule: Q04DX003 (ip), vehicle: other); 96 % of control (dose: 400.0 mg/kg/injection, schedule: Q01DX001 (ip), vehicle: other); 94 % of control (dose: 400.0 mg/kg/injection, schedule: Q04DX003 (ip), vehicle: other).

With `CCC(CO)Nc1nc2ccc(Cl)cc2c2ccccc12` (configuration not stated), the T/C runs as follows: under setting [1], 104 % of control; under setting [2], 102 % of control; under setting [3], 90 % of control; under setting [4], 111 % of control; under setting [5], 103 % of control; under setting [6], 107 % of control.

As for `O=[N+]([O-])c1c[nH]c2[nH]cnc(=S)c12`, the T/C runs as follows: (dose: 100.0 mg/kg/injection, schedule: Q01DX001 (ip), vehicle: carboxymethylcellulose (CMC)) 102 % of control; under setting [7], 87 % of control.

`C1CC2CCCC(C1)S2`: the T/C under setting [8] is 102 % of control; the T/C under setting [9] was 100 % of control; the T/C (dose: 300.0 mg/kg/injection, schedule: Q01DX001 (ip), vehicle: saline) is 96 % of control.

`CCC1CCC(NC(C)=O)CC1` (configuration not stated): the T/C is 96 % of control (dose: 25.0 mg/kg/injection, schedule: Q01DX001 (ip), vehicle: saline with Tween-80); 108 % of control (dose: 50.0 mg/kg/injection, schedule: Q01DX001 (ip), vehicle: saline with Tween-80); 94 % of control (dose: 100.0 mg/kg/injection, schedule: Q01DX001 (ip), vehicle: saline with Tween-80).

For `CC(C)OC(=O)Nc1ccc(Cl)cn1`, the T/C is 103 % of control under setting [2], 101 % of control under setting [4] and 95 % of control under setting [6].

Regarding `CCOC(=O)C(Cc1ccc(N(CCCl)CCCl)cc1)NC=O` (configuration not stated), the T/C reads like this: (dose: 5.0 mg/kg/injection, schedule: Q01DX Z (ip), vehicle: carboxymethylcellulose (CMC)) 111 % of control; (dose: 10.0 mg/kg/injection, schedule: Q01DX Z (ip), vehicle: carboxymethylcellulose (CMC)) 123 % of control; (dose: 40.0 mg/kg/injection, schedule: Q01DX Z (ip), vehicle: carboxymethylcellulose (CMC)) 150 % of control; (dose: 88.8 mg/kg/injection, schedule: Q01DX001 (ip), vehicle: carboxymethylcellulose (CMC)) 168 % of control; (dose: 133.0 mg/kg/injection, schedule: Q01DX001 (ip), vehicle: carboxymethylcellulose (CMC)) 168 % of control; under setting [7], 150 % of control and 161 % of control and 170 % of control.

On to `CC1=CCC(=O)O1`, for which the T/C was 100 % of control (dose: 50.0 mg/kg/injection, schedule: Q01DX001 (ip), vehicle: saline); 94 % of control (dose: 50.0 mg/kg/injection, schedule: Q01DX009 (ip), vehicle: saline with Tween-80); 100 % of control (dose: 100.0 mg/kg/injection, schedule: Q01DX001 (ip), vehicle: saline); 97 % of control (dose: 100.0 mg/kg/injection, schedule: Q01DX009 (ip), vehicle: saline with Tween-80); 97 % of control (dose: 200.0 mg/kg/injection, schedule: Q01DX001 (ip), vehicle: saline); 94 % of control (dose: 200.0 mg/kg/injection, schedule: Q01DX009 (ip), vehicle: saline with Tween-80). Besides, the T/C (dose: 400.0 mg/kg/injection, schedule: Q01DX001 (ip), vehicle: saline) was 97 % of control.

As to `CCOC(=O)CC(C)(C)CC(=O)C1CNC2=C(C1)C(=O)CC(C)(C)C2` (configuration not stated), the T/C (dose: 100.0 mg/kg/injection, schedule: Q01DX005 (ip), vehicle: Klucel (hydroxypropylcellulose) (HPC)) is 102 % of control; the T/C (dose: 100.0 mg/kg/injection, schedule: Q04DX002 (ip), vehicle: Klucel (hydroxypropylcellulose) (HPC)) is 89 % of control; the T/C (dose: 200.0 mg/kg/injection, schedule: Q01DX005 (ip), vehicle: Klucel (hydroxypropylcellulose) (HPC)) was 118 % of control; the T/C (dose: 200.0 mg/kg/injection, schedule: Q04DX002 (ip), vehicle: Klucel (hydroxypropylcellulose) (HPC)) is 92 % of control; the T/C (dose: 400.0 mg/kg/injection, schedule: Q01DX005 (ip), vehicle: Klucel (hydroxypropylcellulose) (HPC)) was 91 % of control; the T/C (dose: 400.0 mg/kg/injection, schedule: Q04DX002 (ip), vehicle: Klucel (hydroxypropylcellulose) (HPC)) was 97 % of control.

With `NCc1ccc(Cl)cc1Cl`, the T/C (dose: 100.0 mg/kg/injection, schedule: Q01DX009 (ip), vehicle: saline) is 103 % of control and the T/C (dose: 200.0 mg/kg/injection, schedule: Q01DX009 (ip), vehicle: saline) was 108 % of control.

Turning to `CN(C)CCCNCC(=O)Nc1ccc(S(=O)(=O)c2ccc([N+](=O)[O-])cc2)cc1`, the T/C reads like this: under setting [8], 104 % of control; under setting [9], 104 % of control.

Regarding `N#Cc1ccc(N=S=O)cc1`, the T/C is 105 % of control under setting [10] and 112 % of control (dose: 200.0 mg/kg/injection, schedule: Q04DX002 (ip), vehicle: saline with Tween-80).

As to `CCOC(=O)c1ccc(N(CCC(=O)CBr)C(C)=O)cc1`, the T/C reads like this: (dose: 5.0 mg/kg/injection, schedule: Q01DX001 (ip), vehicle: carboxymethylcellulose (CMC)) 97 % of control; (dose: 10.0 mg/kg/injection, schedule: Q01DX001 (ip), vehicle: carboxymethylcellulose (CMC)) 100 % of control; (dose: 20.0 mg/kg/injection, schedule: Q01DX001 (ip), vehicle: carboxymethylcellulose (CMC)) 100 % of control; (dose: 40.0 mg/kg/injection, schedule: Q01DX001 (ip), vehicle: carboxymethylcellulose (CMC)) 97 % of control.

As to `Cc1cc(C)n(/N=C/c2ccccc2[N+](=O)[O-])c(=O)c1C#N`, the T/C runs as follows: under setting [1], 91 % of control; under setting [2], 102 % of control; under setting [3], 92 % of control; under setting [4], 93 % of control; under setting [5], 92 % of control; under setting [6], 96 % of control.

`C[P+](c1ccccc1)(c1ccc(Cl)cc1)c1ccc(Cl)cc1`: the T/C (dose: 25.0 mg/kg/injection, schedule: Q04DX002 (ip), vehicle: saline) is 100 % of control; the T/C (dose: 50.0 mg/kg/injection, schedule: Q04DX002 (ip), vehicle: saline) was 95 % of control; the T/C under setting [10] is 116 % of control.
